Laboratory results: ChEMBL document CHEMBL5604064, “ASAP - DENV-1 NS2B-NS3 protease fluorescence dose response” (2024)
Where “and” joins values, the source holds several entries; their conditions need not be identical. Equal entries are not always repeated.

Target: T1, NS3 protease (dengue virus type 1, UniProt A0A0K0TQ28)
T1 sequence (A0A0K0TQ28 whole entry): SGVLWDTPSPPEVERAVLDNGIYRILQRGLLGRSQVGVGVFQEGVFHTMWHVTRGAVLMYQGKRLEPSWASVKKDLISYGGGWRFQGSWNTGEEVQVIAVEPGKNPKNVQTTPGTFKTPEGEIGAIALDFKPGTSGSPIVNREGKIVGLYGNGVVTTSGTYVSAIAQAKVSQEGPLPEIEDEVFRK
Test: Functional biochemical assay to identify treatments for viral infectious disease that targets Dengue virus type 1 NS2B-NS3 protease. Utilizing a direct enzyme activity measurement method, reading the fluorescence intensity is used to characterize the relative potency of inhibitors as IC50.
Parameters: species or system Nauru/West Pac/1974

| SMILES | IC50 |
| --- | --- |
| O=C(Nc1ccc2c(c1)CNC2)c1cc(Br)cc2[nH]c(-c3ccccc3)nc12 | 1.24 µM |
| CC(C)CNC(=O)c1cc(Cl)ccc1NS(=O)(=O)c1ccc(Oc2ccccc2Cl)cc1 | 14.4 µM |
| O=C(Nc1ccc2c(c1)CNC2)c1cc(F)c2[nH]ccc2c1 | > 99.5 µM |
| N=C(N)NCCC[C@H](NC(=O)c1nccs1)C(=O)N[C@@H](CCCCN)C(=O)N[C@@H](C(N)=O)c1ccc(OCc2ccc(C(F)(F)F)cc2)cc1 | 920 nM and 1.03 µM (2×) and 1 µM and 926 nM and 1.69 µM and 865 nM |
| C=CC[C@H]1NCc2cc(N[C@H](C(=O)NC(C)C)c3cc(Cl)cc4[nH]ncc34)ccc21 | 81.8 µM |
| Cc1ccccc1-c1nc2c(C(=O)Nc3ccc4c(c3)CNC4)cc(F)cc2[nH]1 | 2.19 µM |
